Tests used:
Experiment in all cases: microbe, parasite or virus in culture
[1] = test system: pseudotyped VSV G particles (VSVpp); format: cell-based; details: Vesicular stomatitis virus, 72 h, read-out: VSVpp (EC50, μM)
[2] = test system: Pseudotyped HCV GT1a particles (HCVpp); format: cell-based, HCV GT1a H77 strain; details: Hepatitis C virus, 72 h, read-out: HCVpp GT-1a (EC50, μM)
[3] = test system: Pseudotyped HCV GT1b particles (HCVpp); format: cell-based, HCV GT1b Con1 strain; details: Hepatitis C virus, 72 h, read-out: HCVpp GT-1b (EC50, μM)

SMILES | EC50 [1] | EC50 [2] | EC50 [3]
Nc1nc(Nc2cccc(C(F)(F)F)c2F)n[nH]1 [Compound I-53, N^3-(2-Fluoro-3-trifluoromethyl-phenyl)-1H-[1,2,4]triazole-3,5-diamine] | 100 µM | 100 µM | 
Nc1nc(Nc2ccc(Br)c(Cl)c2)n[nH]1 [Compound I-40, N*3*-(4-Bromo-3-chloro-phenyl)-1H-[1,2,4]triazole-3,5-diamine] | 45.7 µM |  | 3.29 µM
N#CCN(c1cc(Cl)cc(Cl)c1)c1n[nH]c(N)n1 [Compound I-30, [(5-Amino-1H-[1,2,4]triazol-3-yl)-(3,5-dichloro-phenyl)-amino]-acetonitrile] | 100 µM | 14.5 µM | 
N#Cc1c(F)cc(Nc2n[nH]c(N)n2)cc1S(F)(F)(F)(F)F [Compound I-86, 4-(5-Amino-1H-[1,2,4]triazol-3-ylamino)-2-fluoro-6-pentafluorosulfur-benzonitrile] | > 10 µM |  | 0.104 µM
Nc1nc(Nc2cc(Cl)cc(Cl)c2)n[nH]1 [Compound I-41, 3-Amino-5-(3,5-Dichloroanilino)-S-triazole] |  | 0.138 µM | 1.61 µM
N#Cc1c(F)cc(Nc2nc(N)n[nH]2)cc1C(F)(F)F [Compound I-68, 4-(5-Amino-2H-[1,2,4]triazol-3-ylamino)-2-fluoro-6-trifluoromethyl-benzonitrile] | 43.3 µM |  | 0.161 µM
Nc1nc(Nc2cc(F)c(Br)c(Cl)c2)n[nH]1 [Compound I-5, N^3-(4-Bromo-3-chloro-5-fluoro-phenyl)-1H-[1,2,4]triazole-3,5-diamine] | 45.5 µM |  | 0.536 µM
Nc1nc(Nc2cccc(S(F)(F)(F)(F)F)c2)n(C2CCCCC2)n1 [Compound I-72, Cyclohexyl-N*5*-(3-pentafluorosulfur-phenyl)-1H-[1,2,4]triazole-3,5-diamine] | 68.3 µM | 36.1 µM | 
N#Cc1ccc(Nc2n[nH]c(N)n2)cc1 [Compound I-47, 4-(5-Amino-1H-[1,2,4]triazol-3-ylamino)-benzonitrile] | 100 µM | 19.6 µM | 
Cn1nc(N)nc1Nc1cccc(S(F)(F)(F)(F)F)c1 [Compound I-71, 1-Methyl-N*5*-(3-pentafluorosulfur-phenyl)-1H-[1,2,4]triazole-3,5-diamine] | 100 µM | 100 µM | 
N#Cc1ccc(Nc2n[nH]c(N)n2)cc1S(=O)(=O)C(F)(F)F [Compound I-34, 4-(5-Amino-1H-[1,2,4]triazol-3-ylamino)-2-trifluoromethanesulfonyl-benzonitrile] | > 1 µM | 0.2 µM | 
Nc1nc(Nc2cccc(C(=O)O)c2)n[nH]1 [Compound I-31, 3-(5-Amino-1H-[1,2,4]triazol-3-ylamino)-benzoic acid] | 100 µM | 100 µM | 
C=Cc1c(Cl)cc(Nc2n[nH]c(N)n2)cc1Cl [Compound I-67, N^3-(3,5-Dichloro-4-vinyl-phenyl)-1H-[1,2,4]triazole-3,5-diamine] | 100 µM |  | 0.685 µM
Nc1nc(Nc2ccc(S(F)(F)(F)(F)F)cc2)n[nH]1 [Compound I-75, N*3*-(4-pentafluorosulfur-phenyl)-1H-[1,2,4]triazole-3,5-diamine] | 100 µM | 14.3 µM | 
Nc1nc(Nc2ccc(Br)c(S(F)(F)(F)(F)F)c2)n[nH]1 [Compound I-81, N*3*-(4-Bromo-3-pentafluorosulfur-phenyl)-1H-[1,2,4]triazole-3,5-diamine] | 34 µM |  | 0.527 µM
CN(c1cc(Cl)cc(Cl)c1)c1n[nH]c(N)n1 [Compound I-28, N*3*-(3,5-Dichloro-phenyl)-N*3*-methyl-1H-[1,2,4]triazole-3,5-diamine] | 100 µM | 82.8 µM | 
Nc1nc(Nc2cc(Br)cc(S(F)(F)(F)(F)F)c2)n[nH]1 [Compound I-82, N*3*-(3-Bromo-5-pentafluorosulfur-phenyl)-1H-[1,2,4]triazole-3,5-diamine] | 57.5 µM |  | 0.918 µM
Cn1nc(N)nc1Nc1cc(F)cc(S(F)(F)(F)(F)F)c1 [Compound I-74, N*5*-(3-Fluoro-5-pentafluorosulfur-phenyl)-1-methyl-1H-[1,2,4]triazole-3,5-diamine] | 100 µM | 34.3 µM | 
N#CC1(c2cccc(Nc3n[nH]c(N)n3)c2)CC1 [Compound I-59, 1-[3-(5-Amino-1H-[1,2,4]triazol-3-ylamino)-phenyl]-cyclopropanecarbonitrile] | 100 µM | 1.46 µM | 
Nc1nc(Nc2cc(F)cc(Cl)c2)n[nH]1 [Compound I-61, N^3-(3-Chloro-5-fluoro-phenyl)-1H-[1,2,4]triazole-3,5-diamine] | > 10 µM |  | 0.331 µM
CN(c1cc(Cl)c(Cl)c(Cl)c1)c1n[nH]c(N)n1 [Compound I-27, N*3*-Methyl-N*3*-(3,4,5-trichloro-phenyl)-1H-[1,2,4]triazole-3,5-diamine] | 94.4 µM | 21.1 µM | 

SMILES | EC50 [1] | EC50 [2] | EC50 [3]
Nc1n[nH]c(Nc2cc(F)c(Br)c(F)c2)n1 [Compound I-46, N^5-(4-Bromo-3,5-difluoro-phenyl)-1H-[1,2,4]triazole-3,5-diamine] | 100 µM |  | 1.18 µM
Nc1nc(Nc2cccc(Cl)c2Cl)n[nH]1 [Compound I-49, N^3-(2,3-Dichloro-phenyl)-1H-[1,2,4]triazole-3,5-diamine] | 100 µM | 100 µM | 
Nc1nc(Nc2cccc(CC(F)(F)F)c2)n[nH]1 [Compound I-55, N^3-[3-(2,2,2-Trifluoro-ethyl)-phenyl]-1H-[1,2,4]triazole-3,5-diamine] | 100 µM | 10.3 µM | 
Nc1nc(Nc2cccc(C(=O)c3ccccc3)c2)n[nH]1 [Compound I-58, [3-(5-Amino-1H-[1,2,4]triazol-3-ylamino)-phenyl]-phenyl-methanone] |  | 4.08 µM | 
Nc1n[nH]c(Nc2cc(F)c(Br)c(C(F)(F)F)c2)n1 [Compound I-45, N^5-(4-bromo-3-fluoro-5-trifluoromethylphenyl)-1H-[1,2,4]-triazole-3,5-diamine] | 82.5 µM |  | 0.095 µM
N#Cc1ccc(Nc2n[nH]c(N)n2)cc1S(F)(F)(F)(F)F [Compound I-85, 4-(5-Amino-1H-[1,2,4]triazol-3-ylamino)-2-pentafluorosulfur-benzonitrile] | > 10 µM |  | 0.287 µM
CS(=O)(=O)c1cccc(NC(=O)c2c(Cl)cc(Nc3n[nH]c(N)n3)cc2Cl)c1 [Compound I-66, 4-(5-Amino-1H-[1,2,4]triazol-3-ylamino)-2,6-dichloro-N-(3-methanesulfonyl-phenyl)-benzamide] | 100 µM |  | 4.99 µM
COC(=O)c1c(Cl)cc(Nc2n[nH]c(N)n2)cc1Cl [Compound I-63, 4-(5-Amino-1H-[1,2,4]triazol-3-ylamino)-2,6-dichloro-benzoic acid methyl ester] | 100 µM |  | 1.74 µM
N#CCc1c(Cl)cc(Nc2n[nH]c(N)n2)cc1C(F)(F)F [Compound I-84, 2-(4-(5-amino-1H-1,2,4-triazol-3-ylamino)-2-chloro-6-(trifluoromethyl)phenyl)acetonitrile] | 42.1 µM |  | 0.628 µM
Nc1nc(Nc2cc(Cl)c(C(=O)Nc3ccccc3)c(Cl)c2)n[nH]1 [Compound I-64, 4-(5-Amino-1H-[1,2,4]triazol-3-ylamino)-2,6-dichloro-N-phenyl-benzamide] | 8.6 µM |  | 4.09 µM
Nc1nc(N(Cc2ccccc2)c2cc(Cl)cc(Cl)c2)n[nH]1 [Compound I-29, N*3*-Benzyl-N*3*-(3,5-dichloro-phenyl)-1H-[1,2,4]triazole-3,5-diamine] | 7.5 µM | 6.49 µM | 
Nc1nc(Nc2cc(Cl)c(S(=O)(=O)N3CCOCC3)c(Cl)c2)n[nH]1 [Compound I-44, N3-(3,5-dichloro-4-(morpholinosulfonyl)phenyl)-1H-1,2,4-triazole-3,5-diamine] | 100 µM |  | 0.545 µM
N#Cc1c(F)cc(Nc2nc(N)n[nH]2)cc1F [Compound I-69, 4-(5-Amino-2H-[1,2,4]triazol-3-ylamino)-2-difluoro-benzonitrile] | 100 µM |  | 0.561 µM
Nc1nc(Nc2cc(Cl)c(Cc3nnn[nH]3)c(C(F)(F)F)c2)n[nH]1 [Compound I-90, N3-(4-((1H-tetrazol-5-yl)methyl)-3-chloro-5-(trifluoromethyl)phenyl)-1H-1,2,4-triazole-3,5-diamine] | 100 µM | 24.4 µM | 
N#Cc1c(NN)cc(Nc2n[nH]c(N)n2)cc1S(F)(F)(F)(F)F [Compound I-87, 4-(5-Amino-1H-[1,2,4]triazol-3-ylamino)-2-hydrazino-6-pentafluorosulfur-benzonitrile] | > 10 µM |  | 1.65 µM
CN(C)C(=O)c1ccc(Nc2n[nH]c(N)n2)cc1Cl [Compound I-78, 4-(5-Amino-1H-[1,2,4]triazol-3-ylamino)-2-chloro-N,N-dimethyl-benzamide] | 100 µM | 32.1 µM | 
CS(=O)(=O)Nc1cccc(Nc2n[nH]c(N)n2)c1 [Compound I-33, N-[3-(5-Amino-1H-[1,2,4]triazol-3-ylamino)-phenyl]-methanesulfonamide] | 100 µM | 100 µM | 
Nc1nc(Nc2cc(Cl)c(C(=O)N3CCCC3)c(Cl)c2)n[nH]1 [Compound I-65, [4-(5-Amino-1H-[1,2,4]triazol-3-ylamino)-2,6-dichloro-N-phenyl]-pyrrolidin-1-yl-methanone] | 100 µM |  | 3.67 µM
Cc1ccc(Nc2n[nH]c(N)n2)cc1Cl [Compound I-76, N^3-(3-Chloro-4-methyl-phenyl)-1H-[1,2,4]triazole-3,5-diamine] | 100 µM | 0.791 µM | 
CNC(=O)Nc1ccc(Nc2n[nH]c(N)n2)cc1Cl [Compound I-62, 1-[4-(5-Amino-1H-[1,2,4]triazol-3-ylamino)-2-chloro-phenyl]-3-methyl-urea] | 100 µM |  | 100 µM
